Test results from patent publication US11603475B2, “Antifouling article” (I-Tech AB, priority 2017, dated 2023).

Columns and labels:
tube worms = conditions: in vivo; cited from earlier work
[1] = stirring
Protocol: This example investigated the solubility of SELEKTOPE® (I-Tech AB, Mölndal, Sweden) in 1,4-butandiol (Brenntag Nordic AB, Malmö, Sweden). Vials were prepared according to Table 1 and left with stirring.
Vial number 4 was prepared and left with stirring in a same way as vial numbers 1-3.

algal growth = conditions: in vivo; cited from earlier work
barnacle cyprid larva = conditions: barnacles; cited from earlier work

For Cc1cccc(C(C)c2c[nH]cn2)c1C (racemic) [Medetomidine, (±)-4,5-[1-(2,3-dimethylphenyl)ethyl)-1H-imidazole], the “effect on other hard fouling, such as tube worms” value (tube worms) is listed as “shown effect”, the “dissolution in vial number 1” value ([1]; 97 mg SELEKTOPE in 1.007 g 1,4-butandiol, after 24 hours) is listed as “all SELEKTOPE® had dissolved” and the “dissolution in vial number 2” value ([1]; 206 mg SELEKTOPE in 1.012 g 1,4-butandiol, 48 hours after preparation) is listed as “all SELEKTOPE® material had dissolved”. The “dissolution in vial number 4” value ([1]; 247 mg SELEKTOPE in 1.009 g 1,4-butandiol, 24 hours after preparation (same at 48 hours)) was “a few non-dissolved grains remaining”, the “dissolution in vial number 3” value ([1]; 303 mg SELEKTOPE in 1.024 g 1,4-butandiol, after about 2 hours (same after 24 and 48 hours)) was “still a lot of non-dissolved SELEKTOPE®” and the “effect on algal growth” value (algal growth) was “no effect on algal growth”. The “concentrations that impede larval settlement” value (barnacle cyprid larva) was 1 to 10 nM.
